The results in this text go back to patent publication US20260207551A1, “PHOSPHOGLICERATE DEHYDROGENASE INHIBITORS FOR THE TREATMENT OF FIBROSIS” (CHIESI FARMACEUTICI S.P.A., priority 2022, published 2026).

Where two headings read alike, the source gives them in different places.

Data set [1] can be described thus: Plasma exposure after the last dose in bleomycin model (Example 5). It is filed as in vivo, Male C57BL6/J mice. The note with it: 0.5 h, 2 h and 7 h. As to the method:
The Bioanalysis of Compound 19 in plasma was carried out under the same experimental conditions as reported in Example 3.
Plasma exposure of Compound 19 was determined following the last oral dose at three timepoints (0.5 h, 2 h and 7 h).

The next data set concerns synthesis of 13C3-serine. The experiment in a line: PK/PD model: in vivo [13C6] glucose tracing, inhibition of 13C3-serine synthesis. Set-up: species or system mouse male (C57BL/6J). The note with it: for inhibition at 300 mg/kg: Mus musculus. The protocol: As PHGDH catalyzes the rate-limiting step of glucose-derived serine synthesis, a pharmacokinetic/pharmacodynamic (PK/PD) experiment aimed to assess the inhibition of the synthesis of ^13C3-serine after oral administration of ^13C6-glucose was performed in mouse male (C57BL/6J).
(§1) Animals were fasted overnight before treatment. Following 0.5 h from administration of either Compound 19 at dose of 300 mg/kg or vehicle (0.5% Tween 80, 0.5% Methylcellulose in H2O), ^13C6-glucose was administered by oral gavage (2 g/kg, Merck Life Science Srl). Blood, lung, and brain samples were collected at 1 h, 6.5 h and 24.5 h after treatment with Compound 19 or vehicle.
The tissue concentration of ^13C3-serine was determined by a liquid chromatography-tandem mass spectrometry (LC/MS/MS) assay. GraphPad Prism (version 8.1.2) was used for drawing graphs and for statistical analysis. Plasma or tissue homogenate samples (tissues were homogenized with a water/acetonitrile 50/50 mixture) were extracted with 3 volumes of acetonitrile. Supernanatant was injected into HPLC system (Agilent 1260 Quaternary Pump equipped with an Agilent 1200 High Performance Autosampler SL; Agilent), using a Kinetex EVO C18 analytical column (100 A, 50×2.1 mm, 2.6 μm; Phenomenex) for the analysis of Compound 19 or an InfinityLab Poroshell 120 Hilic-Z (50×2.1 mm 2.7 μm; Agilent) for the analysis of ^13C3-serine. The mobile phases consisted of 0.1% formic acid in water (solvent A) and 0.1% formic acid in acetonitrile (solvent B); chromatographic separation was performed with gradient elution method (see conditions below): • Compound 19 (0.0-0.5 min, 10% B; 0.5-3.0 min, gradient to 90% B; 3.0-5.0 min. 90% B; 5.0-6.0 min, gradient to 10% B; 6.0-10.0 min, 10% B—flow rate: 0.4 mL/min). • S^13C3-serine (0.0-0.5 min, 95% B; 0.5-4.0 min, gradient to 60% B; 4.0-5.0 min, 60% B; 5.0-6.0 min, gradient to 95% B; 6.0-10.0 min, 95% B—flow rate: 0.4 mL/min).
Mass spectrometric analysis was performed on a linear ion trap triple quadrupole mass spectrometer (4000 Q TRAP; AB SCIEX) equipped with a turbo spray ion source; mass spectrometer was operated in positive ion mode and quantification was achieved by multiple reaction monitoring (MRM) mode. Peak integration was performed using Analyst (version 1.6.2.). GraphPad Prism (version 8.1.2) was used for drawing graphs and for statistical analysis.
After 0.5 h from administration of Compound 19a at dose of 3, 10, 30, 100 and 300 mg/kg po, Compound 19 at dose of 300 mg/kg po or vehicle po (0.5% Tween 80, 0.5% Methylcellulose in H2O), mice received ^13C6-glucose by oral gavage (2 g/kg, Merck Life Science Srl). […] Blood was withdrawn by cardiac puncture and collected in heparin tubes.

The nature of data set [2]: Plasma and tissue exposure in PK/PD model. Format: in vivo, mouse male (C57BL/6J). Particulars: male, C57BL/6J, mouse, 300 mg/kg, 1 h, 6.5 h and 24.5 h. The protocol:
as §1
The tissue concentration of ^13C3-serine was determined by a liquid chromatography-tandem mass spectrometry (LC/MS/MS) assay. GraphPad Prism (version 8.1.2) was used for drawing graphs and for statistical analysis. Plasma or tissue homogenate samples (tissues were homogenized with a water/acetonitrile 50/50 mixture) were extracted with 3 volumes of acetonitrile. Supernanatant was injected into HPLC system (Agilent 1260 Quaternary Pump equipped with an Agilent 1200 High Performance Autosampler SL; Agilent), using a Kinetex EVO C18 analytical column (100 A, 50×2.1 mm, 2.6 μm; Phenomenex) for the analysis of Compound 19 or an InfinityLab Poroshell 120 Hilic-Z (50×2.1 mm 2.7 μm; Agilent) for the analysis of ^13C3-serine. […]
Mass spectrometric analysis was performed on a linear ion trap triple quadrupole mass spectrometer (4000 Q TRAP; AB SCIEX) equipped with a turbo spray ion source; mass spectrometer was operated in positive ion mode and quantification was achieved by multiple reaction monitoring (MRM) mode. […]

The subject of a further data set is αSMA. Put plainly: Phenotypic assay: high content aSMA staining in NHLF cells. Format: cell-based, Human. Particulars: NHLF, 72 h incubation. The protocol: NHLF cells (Lonza #CC2512) were seeded as 2000 cells/well in 384-well plates in MEM medium w/o serine and glycine (Sigma #M2279)+1% pen/strep+5 mM L-glutamine +10% FBS and incubated overnight at 37° C., 5% CO2.
The next day, cells were washed with PBS and starvation MEM medium w/o serine and glycine (0% FBS) was added and cells were incubated overnight at 37° C., 5% CO2. The day after, cells were pre-incubated with compounds or vehicle (0.3% DMSO) for 1 h. Compounds were tested at 9 consecutive 3-fold dilutions starting from 30 μM. Each compound was tested in duplicate. Cells were further incubated for 72 h at 37° C., 5% CO2, 95% humidity. After 72 h of incubation, αSMA expression was quantified using immunostaining: • Fixation in 4% paraformaldehyde, • Blocking with 3% BSA, 2% FBS, 0.2% Triton-X in PBS, • Primary ab. anti-αSMA (AbCam #ab7817) diluted 500× in blocking buffer • Anti-mouse secondary ab. AF488 (ThermoFisher #A11029) • % of αSMA positive cells was determined by High Content Imaging (Molecular Device), data analysis was performed using MetaXpress software (Molecular Devices) and % of αSMA positive was further used to calculate % of inhibition for tested compounds. Total cell number was determined by Hoechst staining and % of viability over TGFβ stimulated controls was calculated.

In the case of `CC(C)C(C(=O)O)c1ccc(C2(NC(=O)c3cc4c(Cl)c(Cl)ccc4n3C)CCOC2)cc1` (racemic) [Compound 19, (±)-2-(4-(3-(4,5-Dichloro-1-methyl-1H-indole-2-carboxamido)tetrahydro-furan-3-yl)phenyl)-3-methylbutanoic acid], the “plasma exposure following the last oral dose” value in data set [1] was “good oral exposure”. The “brain serine concentration (in words)” value in the data set on synthesis of 13C3-serine (300 mg/kg po, 1 h) is listed as “without reaching the statistical significance”. Further, the “inhibition of labelled serine in brain” value with synthesis of 13C3-serine (300 mg/kg, any timepoint (1, 6.5, 24.5 h)) is reported as “no significant inhibition”. For the same molecule, the inhibition at 300 mg/kg in the data set with synthesis of 13C3-serine (300 mg/kg po, 1 h, read-out: inhibition of labelled serine in lung) was 85%; in the data set with synthesis of 13C3-serine (300 mg/kg po, 1 h, read-out: inhibition of labelled serine in plasma), 87%; in the data set on synthesis of 13C3-serine (300 mg/kg, at 1 and 6.5 h, read-out: inhibition of labelled serine in plasma and lung), 70 to 85%. Moreover, the Kp in data set [2] (brain / plasma, read-out: mean brain/plasma ratio) is 0.01; in data set [2] (lung / plasma, read-out: mean lung/plasma ratio), 0.4. In addition, in the data set with αSMA, the “aSMA pIC50” value turned out to be 5.9.
